A short description of data set [1]: thermogravimetric analysis and differential scanning calorimetry. In kind it is physicochemical. From the text:
Bearing in mind that the active pharmaceutical ingredients are often exposed to heat upon a final dosage form manufacturing (e.g., granulation, hot melt-extrusion, and coating), high thermal stability of the compound is a favorable feature predisposing the molecule (R)-32 for a further development. Another property that may considerably slow down the process of bringing a new molecule to the market is limited solubility in water. Thus, a simple approach to verify if it would be possible to overcome this drawback by the physical modification of its crystalline structure was also undertaken. […] The melting endotherm of crystalline (R)-32 had the onset ca. 115 °C and the minimum at 126 °C. After a simple thermal treatment such as cooling of the melt, the amorphous form of (R)-32 was obtained. Its glass transition temperature was relatively low, ca. 30 °C, which means that (R)-32 should be coprocessed with excipients of antiplasticizing properties to develop enabling formulations stable at ambient storage conditions.
A Mettler Toledo thermogravimetric analysis/SDTA 851^e apparatus calibrated with indium, zinc, and aluminum was used. Its accuracy was equal to 10^–6 g. The samples were placed in an open aluminum crucible. The measurements were performed in Ar 5.0 (50 mL/min). The temperature ranged from 25 to 400 °C. The constant heating rate of 10 °C/min was applied. […]
(In general: Differential scanning calorimetry records heat flow against a reference as temperature is scanned.)

Data set [2] relates to REDs in the medial entorhinal cortex of brain slices from kainate-treated rats. Briefly: spontaneous recurrent epileptiform discharges (REDs) in brain slices of KA-rats. Conditions: 40, 80 and 120 μM, 20 min bath exposure. Further details: species or system rat. Here is the method: The effects of (R)-32 on spontaneous recurrent epileptiform discharges (REDs) recorded in the medial entorhinal cortex of a brain slices obtained from rats that had previously experienced kainate-induced status epilepticus (KA-rats) were evaluated at 40, 80, and 120 μM. […] Finally, the average duration, frequency, and amplitude of REDs after a 20 min exposure, and normalized to baseline measurements, is illustrated in Figure 4C for 40, 80, and 120 μM (R)-32. […] Accordingly, no EC50 quantifications were performed.
Figure 4 (R)-32 fails to affect REDs (recurrent epileptiform discharges) at any concentrations tested. (A) Representative traces of REDs recorded before (baseline), in the presence of 80 μM (R)-32, and 20 min after washout. […]
Evaluation of spontaneous recurrent electrographic discharges (REDs) from the medial entorhinal cortex in acute brain slices obtained from Sprague–Dawley rats that had previously experienced kainate-induced status epilepticus (KA-rats) were performed as previously described (West et al., 2018).[90] […] Extracellular field excitatory postsynaptic potentials (fEPSPs) were then recorded from layer II of the medial entorhinal cortex from 8 brain slices simultaneously. Spontaneous REDs were recorded for a 20 min baseline period. […] Data were acquired using pClamp 10.4.2 and analyzed using the included clampfit 10.4 software. […]

The test system of the next data set is HepG2 cell line. Briefly: hepatotoxicity, HepG2 cell viability. Particulars: 25 μM, 72 h of incubation (Figure 11). It is filed as cell-based, human.

Procedure for HepG2 cell line: The hepatotoxicity potential was assessed with the HepG2 cell line and the reference cytostatic drug doxorubicin.
The results are presented as means + SD. Statistical significance was evaluated by one-way ANOVA, followed by Bonferroni’s multiple comparison post hoc test (Graph Pad Prism 8.0.1 software, San Diego, CA, USA): *p < 0.05, ***p < 0.001, ****p < 0.0001 vs negative control (DMSO 1% in growth media).

On to `CC(=O)N[C@@H](C(=O)N1CCN(c2cccc(OC(F)(F)F)c2)CC1)c1ccccc1` [(R)-32, (R)-N-(2-Oxo-1-phenyl-2-(4-(3-(trifluoromethoxy)phenyl)piperazin-1-yl)ethyl)acetamide], for which the “thermally stable while heating up to (weight loss noted, TGA)” value in data set [1] (10 °C/min) was found to be 190 °C. For the same molecule, in data set [1] (after cooling of the melt), the “glass transition temperature of the amorphous form (DSC)” value is “ca. 30 °C”. Further, the “effect on RED parameters (duration, frequency, amplitude)” value in data set [2] is “failed to significantly affect”.

Regarding `CC(=O)N[C@@H](C(=O)N1CCN(c2cccc(SC(F)(F)F)c2)CC1)c1ccccc1` [(R)-33, (R)-N-(2-Oxo-1-phenyl-2-(4-(3-((trifluoromethyl)thio)phenyl)piperazin-1-yl)ethyl)acetamide], the HepG2 cell viability result with HepG2 cell line is reported as “reduced slightly, but statistically significant cell viability”.

These data come from publication PMC11378297, “Discovery and Profiling of New Multimodal Phenylglycinamide Derivatives as Potent Antiseizure and Antinociceptive Drug Candidates” (ACS Chemical Neuroscience, 2024).
